Assay results from patent US11001591B2, “TRAF 6 inhibitors” (HELMHOLTZ ZENTRUM MUENCHEN—DEUTSCHES FORSCHUNGSZENTRUM FÜR …, priority 2016, dated 2021).
pIC50: −log10 of the molar value. Entries after “also recorded” stand apart in the source; their conditions may differ. Read-outs that look alike come from different tables or passages of the source.

What was measured:
TRAF6-UBC13 interaction = molecular target: T1, TRAF6-UBC13 interaction (Homo sapiens, UniProt Q9Y4K3); test: ALPHAScreen TRAF6WTStrepII-Ubc13FH interaction assay; format: binding; settings: for inhibition at 100 µM: read-out: IC50 Alphascreen
T1 construct: RING-Zincfinger1 (RZ1) domain (residues 50-159) of TRAF6 wildtype; made in house; host or cells: E. coli BL21 codon plus RIPL
T1 sequence (Q9Y4K3 50-159): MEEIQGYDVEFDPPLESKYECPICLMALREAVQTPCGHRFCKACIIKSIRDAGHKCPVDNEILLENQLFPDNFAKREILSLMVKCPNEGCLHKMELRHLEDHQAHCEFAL
Description: In order to identify small molecules that specifically target the RZ1 domain of TRAF6 and thereby prevent its binding to Ubc13, the ALPHAScreen technology (PerkinElmer) was chosen to detect TRAF6WTStrepII-Ubc13FH interaction in High-Throughput-Screenings as well as Structure Activity Relationship (SAR) analysis.
For performance of an automated ALPHAScreen assay, all following components were pre-diluted in ALPHAScreen buffer (1×PBS, 0.5% BSA, 0.01% Tween-20). First, the TRAF6 protein (end concentration 100 nM, 30 μL volume) was added to 384-well-opti-plates involving the MultiFlo dispensing system (BioTek) followed by transfer of the compounds via the Sciclone G3 transfer station (PerkinElmer). After addition of Ubc13FH (end concentration 75 nM, 10 μL volume) with the MultiFlo system and incubation for one hour at room temperature, both beads (Strep-Tactin Alpha Donor beads and Nickel-Chelate acceptor beads; end concentrations 4 μg each, 10 μL volume each) were mixed and added using the MultiFlo system in subdued light. Read-out of the plates occurred after another hour of incubation at room temperature. Statistical parameters including the coefficient of variation, Z′ factor and signal window were calculated to determine the quality of the HTS campaign. To evaluate the efficacy of the compounds, ALPHAScreen units of compound-treated samples were referred to DMSO control treated samples. Thereby, the TRAF6D57K mutant served as the control for minimum signal and was included on every plate of the screening. Compounds that inhibited TRAF6WTStrepII-Ubc13FH by more than 25% were considered as actives. After elimination of ALPHAScreen frequent hitter compounds and His-tag frequent hitters (Schorpp, K., I. Rothenaigner, E. Salmina, et al., Identification of Small-Molecule Frequent Hitters from AlphaScreen High-Throughput Screens. J Biomol Screen, 2014. 19(5): p. 715-26), 178 compounds were defined as primary hits and were subsequently tested in five-point serial dilution assays (2.5-40 μM) in TRAF6WTStrepII-Ubc13FH ALPHAScreen experiments. Only compounds with dose-dependent effects on TRAF6WTStrepII-Ubc13FH (n=27) were taken for further research. For analog testing, all compounds were analyzed in ten-point titration (0.2-100 μM) in TRAF6WTStrepII-Ubc13FH ALPHAScreen experiments. In parallel, the compounds were tested in the ALPHAScreen TruHits Kit (PerkinElmer) to rule out unspecific interference with the ALPHAScreen technology.

TRAF6-Ubc13 binding = molecular target: T2, TRAF6-Ubc13 binding (Homo sapiens, UniProt Q9Y4K3); test: Co-immunoprecipitation of HA-TRAF6 and endogenous Ubc13 in HEK 293T cells; format: cell-based
T2 construct: RING-Zincfinger1 (RZ1) domain (residues 50-159) of TRAF6 wildtype; expressed in transfected cells; host or cells: HEK 293T
T2 sequence (Q9Y4K3 50-159): T1 sequence (Q9Y4K3 50-159)
Description: To study the interaction of TRAF6 and Ubc13 in cells, 1×10^6 293T cells were seeded and after 18 hours cells were transfected with lpg pEF-HA empty or pEF-HA-TRAF6 RZ1 plasmid using the X-tremeGENE HP DNA transfection reagent (Roche). 6 hours upon transfection, cells were treated with compound or DMSO. After 42 hours further incubation, cells were harvested in Co-IP lysis buffer and HA-TRAF6 was immunoprecipitated with anti-HA affinity matrix (Roche). Binding of Ubc13 to TRAF6 was examined in Western Blot analysis.

[1] = inhibition of TRAF6-UBC13 interaction

Cc1nn(-c2ccc3nnc(C)n3n2)c(C)c1CCC(=O)NCc1ccccc1F [Compound 26, 3-(3,5-dimethyl-1-(3-methyl-[1,2,4]triazolo[4,3-b]pyridazin-6-yl)-1H-pyrazol-4-yl)-N-(2-fluorobenzyl)propanamide]
inhibition at 100 µM (TRAF6-UBC13 interaction; [1]): ≥ 30%

Cc1nn(-c2ccc3nnc(C)n3n2)c(C)c1CCC(=O)NCCSCc1ccco1 [Compound 27, 3-(3,5-dimethyl-1-(3-methyl-[1,2,4]triazolo[4,3-b]pyridazin-6-yl)-1H-pyrazol-4-yl)-N-(2-((furan-2-ylmethyl)thio)ethyl)propanamide]
inhibition at 100 µM (TRAF6-UBC13 interaction; [1]): ≥ 30%

Cc1nn(-c2ccc3nnc(C)n3n2)c(C)c1CCC(=O)N1CCN(Cc2ccccc2)CC1 [Compound 28, 1-(4-benzylpiperazin-1-yl)-3-(3,5-dimethyl-1-(3-methyl-[1,2,4]triazolo[4,3-b]pyridazin-6-yl)-1H-pyrazol-4-yl)propan-1-one]
interaction of endogenous Ubc13 with ectopically expressed HA-TRAF6 (TRAF6-Ubc13 binding): active in cells

COc1cccc(CN2CCN(C(=O)CCc3c(C)nn(-c4ccc5nnc(C)n5n4)c3C)CC2)c1 [Compound 29, 3-(3,5-dimethyl-1-(3-methyl-[1,2,4]triazolo[4,3-b]pyridazin-6-yl)-1H-pyrazol-4-yl)-1-(4-(3-methoxybenzyl)piperazin-1-yl)propan-1-one]
interaction of endogenous Ubc13 with ectopically expressed HA-TRAF6 (TRAF6-Ubc13 binding): active in cells

Cc1nn(-c2ccc3nnc(C)n3n2)c(C)c1CCC(=O)N1CCN(Cc2ccc(F)cc2)CC1 [Compound 30, 3-(3,5-dimethyl-1-(3-methyl-[1,2,4]triazolo[4,3-b]pyridazin-6-yl)-1H-pyrazol-4-yl)-1-(4-(4-fluorobenzyl)piperazin-1-yl)propan-1-one]
interaction of endogenous Ubc13 with ectopically expressed HA-TRAF6 (TRAF6-Ubc13 binding): active in cells

Cc1nn(-c2ccc3nnc(C)n3n2)c(C)c1CCC(=O)N1CCC(Cc2ccccc2)C1 (stereo not shown) [Compound 31, 1-(3-benzylpyrrolidin-1-yl)-3-(3,5-dimethyl-1-(3-methyl-[1,2,4]triazolo[4,3-b]pyridazin-6-yl)-1H-pyrazol-4-yl)propan-1-one]
interaction of endogenous Ubc13 with ectopically expressed HA-TRAF6 (TRAF6-Ubc13 binding; listed as HZM06-4): active in cells; also recorded: most active analogs
inhibitory activity in ALPHAScreen (TRAF6-UBC13 interaction; serial dilution): most prominent effect

Cc1nn(-c2ccc3nnc(C)n3n2)c(C)c1CCC(=O)N1CCC(c2ccccc2)CC1 [Compound 32, 3-(3,5-dimethyl-1-(3-methyl-[1,2,4]triazolo[4,3-b]pyridazin-6-yl)-1H-pyrazol-4-yl)-1-(4-phenylpiperidin-1-yl)propan-1-one]
interaction of endogenous Ubc13 with ectopically expressed HA-TRAF6 (TRAF6-Ubc13 binding): active in cells

Cc1nn(-c2ccc3nnc(C)n3n2)c(C)c1CCC(=O)N1CCC(c2ccccn2)CC1 [Compound 33, 3-(3,5-dimethyl-1-(3-methyl-[1,2,4]triazolo[4,3-b]pyridazin-6-yl)-1H-pyrazol-4-yl)-1-(4-(pyridin-2-yl)piperidin-1-yl)propan-1-one]
interaction of endogenous Ubc13 with ectopically expressed HA-TRAF6 (TRAF6-Ubc13 binding; listed as HZM06-7): active in cells; also recorded: most active analogs

COc1cccc(CC2CCN(C(=O)CCc3c(C)nn(-c4ccc5nnc(C)n5n4)c3C)CC2)c1 [Compound 34, 3-(3,5-dimethyl-1-(3-methyl-[1,2,4]triazolo[4,3-b]pyridazin-6-yl)-1H-pyrazol-4-yl)-1-(4-(3-methoxybenzyl)piperidin-1-yl)propan-1-one]
interaction of endogenous Ubc13 with ectopically expressed HA-TRAF6 (TRAF6-Ubc13 binding; listed as HZM06-8): active in cells; also recorded: most active analogs

Cc1nn(-c2ccc3nnc(C)n3n2)c(C)c1CCC(=O)N1CCC(Cc2ccc(F)cc2)CC1 [Compound 35, 3-(3,5-dimethyl-1-(3-methyl-[1,2,4]triazolo[4,3-b]pyridazin-6-yl)-1H-pyrazol-4-yl)-1-(4-(4-fluorobenzyl)piperidin-1-yl)propan-1-one]
interaction of endogenous Ubc13 with ectopically expressed HA-TRAF6 (TRAF6-Ubc13 binding; listed as HZM06-9): active in cells; also recorded: most active analogs

Cc1nn(-c2ccc3nnc(C)n3n2)c(C)c1CCC(=O)N1CCC(Cc2ccccn2)CC1 [Compound 36, 3-(3,5-dimethyl-1-(3-methyl-[1,2,4]triazolo[4,3-b]pyridazin-6-yl)-1H-pyrazol-4-yl)-1-(4-(pyridin-2-ylmethyl)piperidin-1-yl)propan-1-one]
interaction of endogenous Ubc13 with ectopically expressed HA-TRAF6 (TRAF6-Ubc13 binding): active in cells

COc1cccc(N2CCN(C(=O)CCc3c(C)nn(-c4ccc5nnc(C)n5n4)c3C)CC2)c1 [Compound 61, 3-(3,5-dimethyl-1-(3-methyl-[1,2,4]triazolo[4,3-b]pyridazin-6-yl)-1H-pyrazol-4-yl)-1-(4-(3-methoxyphenyl)piperazin-1-yl)propan-1-one]
pIC50 (TRAF6-UBC13 interaction; [1]): ≥ 5.52
